Reference: patent publication US20170042883A1, “Methods for Detecting and Treating Rhinovirus Infection” (The Procter & Gamble Company, priority 2011, published 2017)

These molecules were tested on rhinovirus infection-induced inflammatory markers (IL-6, IP-10, and RANTES) in BEAS-2B (assay: rhinovirus infection-induced inflammatory markers in RV-16 infected BEAS-2B cells). Conditions: ibuprofen (20 µM) added with a subset of compounds at time of infection; two days post-infection; in a majority of instances.
Type: cell-based, human
Description: The effect of various identified compounds on rhinovirus infection-induced inflammatory markers (IL-6, IP-10, and RANTES) in the human bronchial epithelia cell line, BEAS-2B, was evaluated. Kaempferol, luteolin, quercetin, scutellarein, all-transretinoic acid, 3-hydroxyflavone, fustin, 3-methylquercetin, fisetin, apigenin, oxymetazoline HCl, chrysin, naringenin, pyrrolidinedithiocarbamate ammonium, 7-hydroxyflavone, myricetin, diosmetin, 4′,7-dihydroxyflavone, or eriodictyol was added to cell culture media at various doses at the time of RV-16 infection of BEAS-2B cells. IL-6, IP-10 and RANTES protein levels were measured three days post-infection. Cytotoxicity of the compounds was determined by the uptake of vital dye Rhinovirus infected BEAS-2B cells not exposed to the compounds served as a positive control, achieving maximum cytokine production. BEAS-2B cells not exposed to rhinovirus or the compounds served as a negative control. […] The study was repeated for a subset of compounds, and ibuprofen (20 µM) was added to the cell media with the compounds at the time of infection. IL-6, IP-10 and RANTES protein levels were measured two days post-infection.

| Molecule | levels of biomarkers associated with rhinovirus infection (IL-6, IP-10 and RANTES protein levels) |
| --- | --- |
| CC(C)Cc1ccc(C(C)C(=O)O)cc1 (centres unmarked) [ibuprofen] | further reduced |

Same assay, conditions: result in words

| Molecule | anti-inflammatory effects in the rhinovirus infection mediated inflammation model |
| --- | --- |
| O=c1cc(-c2ccc(O)cc2)oc2cc(O)ccc12 [4′,7-dihydroxyflavone] | anti-inflammatory effects |
| C[C@@H]1O[C@@H](OC[C@H]2O[C@@H](Oc3c(-c4ccc(OCCO)c(OCCO)c4)oc4cc(OCCO)cc(O)c4c3=O)[C@H](O)[C@@H](O)[C@@H]2O)[C@H](O)[C@H](O)[C@H]1O [troxerutin] | anti-inflammatory effects |
| O=c1c(-c2ccc(O)cc2)coc2cc(O)ccc12 [daidzein] | anti-inflammatory effects |
| O=c1c(O)c(-c2ccc(O)cc2)oc2cc(O)cc(O)c12 [kaempferol] | anti-inflammatory effects |
| CC1=C(/C=C/C(C)=C/C=C/C(C)=C/C(=O)O)C(C)(C)CCC1 [all-transretinoic acid] | anti-inflammatory effects |
| O=c1cc(-c2ccc(O)cc2)oc2cc(O)cc(O)c12 [Apigenin] | anti-inflammatory effects |
| O=C1C[C@@H](c2ccc(O)c(O)c2)Oc2cc(O)cc(O)c21 [eriodictyol] | anti-inflammatory effects |
| O=c1c(O)c(-c2ccc(O)c(O)c2)oc2cc(O)cc(O)c12 [quercetin] | anti-inflammatory effects |
| 3-methylquercetin | anti-inflammatory effects |
| Cc1cc(C(C)(C)C)c(O)c(C)c1CC1=NCCN1 [oxymetazoline] | anti-inflammatory effects |
| COc1ccc(-c2cc(=O)c3c(O)cc(O)cc3o2)cc1O [diosmetin] | anti-inflammatory effects |
| O=c1c(O)c(-c2cc(O)c(O)c(O)c2)oc2cc(O)cc(O)c12 [Myricetin] | anti-inflammatory effects |
| O=c1c(O)c(-c2ccccc2)oc2ccccc12 [3-hydroxyflavone] | anti-inflammatory effects |
| O=C1c2ccc(O)cc2O[C@H](c2ccc(O)c(O)c2)[C@H]1O [fustin] | anti-inflammatory effects |
| O=c1cc(-c2ccc(O)c(O)c2)oc2cc(O)cc(O)c12 [luteolin] | anti-inflammatory effects |
| O=c1c(-c2ccc(O)cc2)coc2cc(O)cc(O)c12 [genistein] | anti-inflammatory effects |
| O=C1C[C@@H](c2ccc(O)cc2)Oc2cc(O)cc(O)c21 [naringenin] | anti-inflammatory effects |
| O=c1c(O)c(-c2ccc(O)c(O)c2)oc2cc(O)ccc12 [fisetin] | anti-inflammatory effects |
| O=c1cc(-c2ccccc2)oc2cc(O)ccc12 [7-hydroxyflavone] | anti-inflammatory effects |
